Like-named read-outs stand apart in the source and are kept apart here.
Experiments:
[1] = target: T. gondii DHFR (tgDHFR) (Toxoplasma gondii, UniProt Q07422)
[2] = target: hDHFR (Homo sapiens (Human), UniProt P00374); assay: DHFR inhibition assay (diaphorase/resazurin coupled, fluorescence of resorufin), human DHFR; format: biochemical
[3] = target: T. brucei DHFR (tbDHFR) (Trypanosoma brucei brucei, UniProt Q27783); assay: DHFR inhibition assay (diaphorase/resazurin coupled), T. brucei DHFR; format: biochemical; details: for Average DHFR selectivity (h/tb)*-DHFR IC50: hDHFR IC50/tbDHFR IC50
[4] = target: T. cruzi DHFR (tcDHFR) (Trypanosoma cruzi, UniProt Q27793); assay: DHFR inhibition assay (diaphorase/resazurin coupled), T. cruzi DHFR; format: biochemical; details: hDHFR IC50/tcDHFR IC50

Chain of hDHFR (P00374 whole entry): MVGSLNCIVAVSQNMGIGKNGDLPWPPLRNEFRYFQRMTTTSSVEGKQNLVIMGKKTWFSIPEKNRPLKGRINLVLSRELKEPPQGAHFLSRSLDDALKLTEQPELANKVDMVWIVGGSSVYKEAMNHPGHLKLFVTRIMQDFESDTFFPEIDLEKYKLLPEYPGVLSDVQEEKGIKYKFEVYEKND

SMILES | Average DHFR selectivity (h/tg) ([1]; hDHFR IC50/tgDHFR IC50) | also measured
CCc1nc(N)nc(N)c1N1CCN(c2ccc(C)cn2)CC1 [Compound 45, 6-ethyl-5-(4-(5-methylpyridin-2-yl)piperazin-1-yl)pyrimidine-2,4-diamine] | 136.15 | –
CCCc1nc(N)nc(N)c1N1CCN(c2ncc(C)cn2)CC1 [Compound 59, 5-(4-(5-methylpyrimidin-2-yl)piperazin-1-yl)-6-propylpyrimidine-2,4-diamine] | 118.81 | –
CCCc1nc(N)nc(N)c1N1CCN(c2ccc(F)cc2)CC1 [Compound 52, 5-(4-(4-fluorophenyl)piperazin-1-yl)-6-propylpyrimidine-2,4-diamine] | 303.92 | –
N#Cc1cccc(-c2cccc(N3CCN(c4cnc(N)nc4N)CC3)c2)c1 [Compound 67, 3′-(4-(2,4-diaminopyrimidin-5-yl)piperazin-1-yl)-[1,1′-biphenyl]-3-carbonitrile] | 77.18 | –
CN(C)c1ncc(-c2cccc(N3CCN(c4cnc(N)nc4N)CC3)c2)cn1 [Compound 96, 5-(4-(3-(2-(dimethylamino)pyrimidin-5-yl)phenyl)piperazin-1-yl)pyrimidine-2,4-diamine] | 115.48 | –
Nc1ncc(N2CCN(c3cccc(C(F)(F)F)c3)CC2)c(N)n1 [Compound 3, 5-(4-(3-(trifluoromethyl)phenyl)piperazin-1-yl)pyrimidine-2,4-diamine] | – | hDHFR pIC50-DHFR primary assay ([2]; Table 11): 6.27; tgDHFR pIC50-DHFR primary assay [1]: 7.21
CCCc1nc(N)nc(N)c1N1CCN(c2ccccn2)CC1 [Compound 56, 6-propyl-5-(4-(pyridin-2-yl)piperazin-1-yl)pyrimidine-2,4-diamine] | 269.78 | –
Nc1ncc(N2CCN(c3cccc(-c4cnccn4)c3)CC2)c(N)n1 [Compound 104, 5-(4-(3-(pyrazin-2-yl)phenyl)piperazin-1-yl)pyrimidine-2,4-diamine] | – | hDHFR pIC50-DHFR primary assay ([2]; Table 11): 5.88; tgDHFR pIC50-DHFR primary assay [1]: 7.99
Cc1nc(N)nc(N)c1N1CCN(c2ccccc2)CC1 [Compound 47, 6-methyl-5-(4-phenylpiperazin-1-yl)pyrimidine-2,4-diamine] | 84.63 | –
CCCc1nc(N)nc(N)c1N1CCC(c2ccccc2)CC1 [Compound 51, 5-(4-phenylpiperidin-1-yl)-6-propylpyrimidine-2,4-diamine] | 241.03 | –
CCc1nc(N)nc(N)c1N1CCN(c2ccncc2)CC1 [Compound 36, 6-ethyl-5-(4-(pyridin-4-yl)piperazin-1-yl)pyrimidine-2,4-diamine] | 110.92 | –
Nc1ncc(N2CCN(c3cccc(-c4ncccn4)c3)CC2)c(N)n1 [Compound 103, 5-(4-(3-(pyrimidin-2-yl)phenyl)piperazin-1-yl)pyrimidine-2,4-diamine] | – | hDHFR pIC50-DHFR primary assay ([2]; Table 11): 5.89; tgDHFR pIC50-DHFR primary assay [1]: 7.56
CCc1ncc(-c2cccc(N3CCN(c4cnc(N)nc4N)CC3)c2)cn1 [Compound 95, 5-(4-(3-(2-ethylpyrimidin-5-yl)phenyl)piperazin-1-yl)pyrimidine-2,4-diamine] | 218.78 | Average DHFR selectivity (h/tb)*-DHFR IC50 [3]: 375
COc1ncccc1-c1cccc(N2CCN(c3cnc(N)nc3N)CC2)c1 [Compound 80, 5-(4-(3-(2-methoxypyridin-3-yl)phenyl)piperazin-1-yl)pyrimidine-2,4-diamine] | 165.32 | –
Nc1nc(N)c(N2CCN(c3ccccc3)CC2)c(CC2CC2)n1 [Compound 106] | 218.96 | –
Nc1ncc(N2CCN(c3cccc(N4CCOCC4)c3)CC2)c(N)n1 [Compound 25, 5-(4-(3-morpholinophenyl)piperazin-1-yl)pyrimidine-2,4-diamine] | 105.15 | –
Nc1ncc(N2CCN(c3ccc(F)cc3)CC2)c(N)n1 [Compound 116, 5-(4-(4-fluorophenyl)piperazin-1-yl)pyrimidine-2,4-diamine] | – | Average DHFR selectivity (h/tc) [4]: 100
CCCc1nc(N)nc(N)c1N1CCN(c2ccc(OC)cn2)CC1 [Compound 60, 5-(4-(5-methoxypyridin-2-yl)piperazin-1-yl)-6-propylpyrimidine-2,4-diamine] | 149.75 | –
Nc1ncc(N2CCN(c3cccc(C4CC4)c3)CC2)c(N)n1 [Compound 66, 5-(4-(3-cyclopropylphenyl)piperazin-1-yl)pyrimidine-2,4-diamine] | – | hDHFR pIC50-DHFR primary assay ([2]; Table 11): 5.79; tgDHFR pIC50-DHFR primary assay [1]: 7.54
Cc1cccc(N2CCN(c3cnc(N)nc3N)CC2)c1 [Compound 7, 5-(4-(m-tolyl)piperazin-1-yl)pyrimidine-2,4-diamine] | – | hDHFR pIC50-DHFR primary assay ([2]; Table 11): 5.22; tgDHFR pIC50-DHFR primary assay [1]: 7.12

SMILES | Average DHFR selectivity (h/tg) ([1]; hDHFR IC50/tgDHFR IC50) | also measured
Nc1ncc(N2CCN(c3ccc(Cl)cc3)CC2)c(N)n1 [Compound 6, 5-(4-(4-chlorophenyl)piperazin-1-yl)pyrimidine-2,4-diamine] | – | hDHFR pIC50-DHFR primary assay ([2]; Table 11): 5.96; tgDHFR pIC50-DHFR primary assay [1]: 7.34
Nc1ncc(N2CCN(c3cccc(Br)c3)CC2)c(N)n1 [Compound 11, 5-(4-(3-bromophenyl)piperazin-1-yl)pyrimidine-2,4-diamine] | 37.15 | –
CC1CN(c2cccc(-c3ccccc3)c2)CCN1c1cnc(N)nc1N (stereo not drawn) [Compound 27, 5-(4-([1,1′-biphenyl]-3-yl)-2-methylpiperazin-1-yl)pyrimidine-2,4-diamine] | 218.78 | –
Nc1ncc(N2CCN(c3cccc(-c4cncnc4)c3)CC2)c(N)n1 [Compound 74, 5-(4-(3-(pyrimidin-5-yl)phenyl)piperazin-1-yl)pyrimidine-2,4-diamine] | – | hDHFR pIC50-DHFR primary assay ([2]; Table 11): 5.84; tgDHFR pIC50-DHFR primary assay [1]: 8.32
CCc1nc(N)nc(N)c1N1CCN(c2ccc(C)cc2)CC1 [Compound 39, 6-ethyl-5-(4-(p-tolyl)piperazin-1-yl)pyrimidine-2,4-diamine] | 144.58 | –
CCc1nc(N)nc(N)c1N1CCN(c2cccc(C)c2)CC1 [Compound 31, 6-ethyl-5-(4-(m-tolyl)piperazin-1-yl)pyrimidine-2,4-diamine] | 119.54 | –
Nc1ncc(N2CCC(c3ccccc3)CC2)c(N)n1 [Compound 15, 5-(4-phenylpiperidin-1-yl)pyrimidine-2,4-diamine] | 25.26 | –
Nc1ncc(N2CCN(c3cccc(-c4cnc(C5CC5)nc4)c3)CC2)c(N)n1 [Compound 86, 5-(4-(3-(2-cyclopropylpyrimidin-5-yl)phenyl)piperazin-1-yl)pyrimidine-2,4-diamine] | – | Average DHFR selectivity (h/tb)*-DHFR IC50 [3]: 330
CCc1nc(N)nc(N)c1N1CCN(c2ccccc2)CC1 [Compound 28, 6-ethyl-5-(4-phenylpiperazin-1-yl)pyrimidine-2,4-diamine] | 235.78 | –
CCc1nc(N)nc(N)c1N1CCN(c2ccc(F)cn2)CC1 [Compound 44, 6-ethyl-5-(4-(5-fluoropyridin-2-yl)piperazin-1-yl)pyrimidine-2,4-diamine] | 71.23 | –
CCc1nc(N)nc(N)c1N1CCN(c2ccccn2)CC1 [Compound 34, 6-ethyl-5-(4-(pyridin-2-yl)piperazin-1-yl)pyrimidine-2,4-diamine] | 158.49 | –
Cc1ncc(-c2cccc(C3CCN(c4cnc(N)nc4N)CC3)c2)cn1 [Compound 94, 5-(4-(3-(2-methylpyrimidin-5-yl)phenyl)piperidin-1-yl)pyrimidine-2,4-diamine] | – | hDHFR pIC50-DHFR primary assay ([2]; Table 13): 6.49; tbDHFR pIC50-DHFR primary assay ([3]; Table 13, T. brucei DHFR): 9.05; Average DHFR selectivity (h/tb)*-DHFR IC50 [3]: 357
CCc1nc(N)nc(N)c1N1CCN(c2cccc(OC)c2)CC1 [Compound 33, 6-ethyl-5-(4-(3-methoxyphenyl)piperazin-1-yl)pyrimidine-2,4-diamine] | – | Average DHFR selectivity (h/tg) [1]: 120.23
Nc1ncc(N2CCN(c3cccc(-c4ccnnc4)c3)CC2)c(N)n1 [Compound 73, 5-(4-(3-(pyridazin-4-yl)phenyl)piperazin-1-yl)pyrimidine-2,4-diamine] | – | hDHFR pIC50-DHFR primary assay ([2]; Table 11): 5.96; tgDHFR pIC50-DHFR primary assay [1]: 8.22
Nc1ncc(N2CCN(c3cccc(-c4cccc(F)c4)c3)CC2)c(N)n1 [Compound 64, 5-(4-(3′-fluoro-[1,1′-biphenyl]-3-yl)piperazin-1-yl)pyrimidine-2,4-diamine] | 93.86 | –
Nc1ncc(N2CCN(c3cccc(-c4cnc(Cl)nc4)c3)CC2)c(N)n1 [Compound 100, 5-(4-(3-(2-chloropyrimidin-5-yl)phenyl)piperazin-1-yl)pyrimidine-2,4-diamine] | 197.28 | Average DHFR selectivity (h/tb)*-DHFR IC50 [3]: 522
CC1CN(c2cnc(N)nc2N)CCN1c1cccc(-c2ccccc2)c1 (stereo not drawn) [Compound 26, 5-(4-([1,1′-biphenyl]-3-yl)-3-methylpiperazin-1-yl)pyrimidine-2,4-diamine] | 14.96 | –
CNc1ncc(-c2cccc(N3CCN(c4cnc(N)nc4N)CC3)c2)cn1 [Compound 97, 5-(4-(3-(2-(methylamino)pyrimidin-5-yl)phenyl)piperazin-1-yl)pyrimidine-2,4-diamine] | 131.33 | –
Nc1ncc(N2CCN(c3ccc(Cl)c(Cl)c3)CC2)c(N)n1 [Compound 1, 5-(4-(3,4-dichlorophenyl)piperazin-1-yl)pyrimidine-2,4-diamine] | 5.5 | –
